One assay has as its system Trpm4−/− EAE mice. In words: EAE clinical disability scores in Trpm4-/- mice treated with glibenclamide. The format is in vivo. The settings on record: 10 μg daily i.p. from day 8, vs DMSO control.
Another assay addresses TRPM4 (Homo sapiens, UniProt Q8TD43). The note with it: reported by Damien et al. 2007; Becerra et al. 2011; cited from earlier work.
The subject of assay [1] is WT EAE mice. In words: Immunohistochemical count of axons (SMI 31/SMI 32) and neuronal somata (NeuN) in cervical spinal cord of EAE mice. The format is in vivo. The settings on record: 30 days post immunization, vs vehicle control.
For assay [2], the system named is WT EAE mice. In words: EAE clinical disability scores, MOG35-55-immunized mice treated with glibenclamide. The settings on record: 10 μg daily i.p. from first clinical symptoms (day 8), vs vehicle (DMSO) control, P<0.05. The format is in vivo.

Chain of TRPM4 (Q8TD43 whole entry, species assumed): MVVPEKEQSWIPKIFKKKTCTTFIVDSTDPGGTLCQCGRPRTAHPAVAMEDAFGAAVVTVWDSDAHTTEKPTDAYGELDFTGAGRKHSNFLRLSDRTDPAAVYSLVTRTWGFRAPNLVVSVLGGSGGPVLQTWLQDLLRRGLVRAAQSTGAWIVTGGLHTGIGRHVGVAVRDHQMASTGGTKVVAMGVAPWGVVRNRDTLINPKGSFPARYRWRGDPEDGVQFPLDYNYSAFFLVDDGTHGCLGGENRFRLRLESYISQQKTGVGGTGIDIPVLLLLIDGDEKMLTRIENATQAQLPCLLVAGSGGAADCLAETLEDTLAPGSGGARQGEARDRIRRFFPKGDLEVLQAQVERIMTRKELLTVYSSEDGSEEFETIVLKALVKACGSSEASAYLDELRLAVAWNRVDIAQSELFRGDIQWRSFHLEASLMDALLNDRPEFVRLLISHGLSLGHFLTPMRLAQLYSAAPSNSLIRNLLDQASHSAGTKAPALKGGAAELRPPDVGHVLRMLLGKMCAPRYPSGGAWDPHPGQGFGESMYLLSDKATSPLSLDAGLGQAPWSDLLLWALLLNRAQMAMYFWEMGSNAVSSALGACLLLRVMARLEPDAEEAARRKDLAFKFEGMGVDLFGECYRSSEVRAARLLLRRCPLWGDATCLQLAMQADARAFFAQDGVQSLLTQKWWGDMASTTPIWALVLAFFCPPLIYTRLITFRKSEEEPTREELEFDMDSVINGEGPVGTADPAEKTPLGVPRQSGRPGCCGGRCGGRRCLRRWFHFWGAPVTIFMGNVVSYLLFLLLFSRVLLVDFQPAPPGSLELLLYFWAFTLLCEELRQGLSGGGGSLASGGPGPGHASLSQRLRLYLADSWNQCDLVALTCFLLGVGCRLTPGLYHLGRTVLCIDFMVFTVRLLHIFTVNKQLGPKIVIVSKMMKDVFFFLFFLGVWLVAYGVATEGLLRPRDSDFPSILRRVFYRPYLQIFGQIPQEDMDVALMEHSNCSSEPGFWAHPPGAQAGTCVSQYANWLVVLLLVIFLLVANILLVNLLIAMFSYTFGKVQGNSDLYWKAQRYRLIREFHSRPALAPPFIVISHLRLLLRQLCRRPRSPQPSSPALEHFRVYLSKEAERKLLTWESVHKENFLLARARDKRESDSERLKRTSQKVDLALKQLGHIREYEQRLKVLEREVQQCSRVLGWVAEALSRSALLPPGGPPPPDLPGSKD

In the case of `COc1ccc(Cl)cc1C(=O)NCCc1ccc(S(=O)(=O)NC(=O)NC2CCCCC2)cc1` [glibenclamide], the “clinical disability (mean clinical disability score)” value is “no additional clinical improvement” with Trpm4−/− EAE mice and “ameliorated disability” with WT EAE mice [2]. Further, at TRPM4, the TRPM4 inhibition entry is given as “effectively inhibit TRPM4”. Further, the “number of axons in the corticospinal tract” value in the assay with WT EAE mice [1] (P<0.01) was “preservation of axons”. Moreover, the “number of axons in the dorsal column” value in the assay on WT EAE mice [1] (P<0.05) is “preservation of axons”. For the same compound, the “neuronal cell body loss in the gray matter of the spinal cord” value in the assay on WT EAE mice [1] (did not reach statistical significance) is listed as “slightly diminished”.
